Laboratory results reported in US12201594B2, “Methods and compositions for treatment of pain using capsaicin” (Centrexion Therapeutics Corporation, priority 2017, dated 2025).

Tests used:
[1] = test system: osteoarthritic knee joint pain; assay: WOMAC B stiffness subscale and WOMAC C function subscale, Example 1; assay type: in vivo, human; settings: 1.0 mg dose; through week 16
Description: Human patients aged 45-80 years with chronic knee osteoarthritis, stable moderate to severe pain, and intolerability to analgesics were randomized to receive a single intra-articular injection of placebo into the osteoarthritic knee, a single intra-articular injection of a 0.5 mg dose of capsaicin into the osteoarthritic knee, or a single intra-articular injection of a 1.0 mg dose of capsaicin into the osteoarthritic knee. […]
Patients completed Patient Global Impression of Change (PGIC; change vs baseline in index knee on 7-point scale; 1=very much improved; 7=very much worse, with scores of 1 or 2 indicating significant improvement) and Patient-specific Functional Scale (PSFS; rate≤3 important activities difficult to perform due to index knee pain on 0-10 scale; 0-able to perform; 10=unable to perform) at scheduled visits. Odds ratios for PGIC scores were calculated with chi-square tests. Changes in Western Ontario and McMaster Universities Osteoarthritis Index (WOMAC) B stiffness subscale and WOMAC C function subscale through week 24 were also assessed. PSFS, WOMAC B, and WOMAC C scores were evaluated using a mixed model for repeated measures. […]

[2] = test system: osteoarthritic knee joint pain; assay: Patient-specific Functional Scale (PSFS), Example 1; assay type: in vivo, human
Description: (§1) Human patients aged 45-80 years with chronic knee osteoarthritis, stable moderate to severe pain, and intolerability to analgesics were randomized to receive a single intra-articular injection of placebo into the osteoarthritic knee, a single intra-articular injection of a 0.5 mg dose of capsaicin into the osteoarthritic knee, or a single intra-articular injection of a 1.0 mg dose of capsaicin into the osteoarthritic knee.
(§2) The test article (i.e., placebo or capsaicin) was administered according to the following procedure: (i) applying for a duration of about 15 minutes a cooling article to an exterior surface of a human patient's knee presenting with osteoarthritic knee joint pain, wherein the cooling article was a Breg cooling wrap cooled by circulating ice-cold water, (ii) administering by injection into the intra-articular space of the joint of the knee a 15 mL aliquot of a 2% w/w lidocaine solution in saline, (iii) applying for a duration of about 30 minutes a cooling article to an exterior surface of the knee, wherein the cooling article was a Breg cooling wrap cooled by circulating ice-cold water, (iv) administering by injection into the intra-articular space of the joint of the knee a 4 mL aliquot of a solution containing water, polyethylene glycol having a number-average molecular weight of about 300 g/mol, and for patients receiving capsaicin a dose of capsaicin in an amount of 0.5 mg or 1.0 mg, and (v) applying a cooling article to an exterior surface of the knee for a duration of at least about 30 minutes (and up to 60 minutes upon patient request), wherein the cooling article was a Breg cooling wrap cooled by circulating ice-cold water.
(§3) Patients completed Patient Global Impression of Change (PGIC; change vs baseline in index knee on 7-point scale; 1=very much improved; 7=very much worse, with scores of 1 or 2 indicating significant improvement) and Patient-specific Functional Scale (PSFS; rate≤3 important activities difficult to perform due to index knee pain on 0-10 scale; 0-able to perform; 10=unable to perform) at scheduled visits. Odds ratios for PGIC scores were calculated with chi-square tests. Changes in Western Ontario and McMaster Universities Osteoarthritis Index (WOMAC) B stiffness subscale and WOMAC C function subscale through week 24 were also assessed. PSFS, WOMAC B, and WOMAC C scores were evaluated using a mixed model for repeated measures. Statistical tests were 2-sided (alpha, P=0.10).

[3] = test system: osteoarthritic knee joint pain; assay: Patient Global Impression of Change (PGIC), Example 1; assay type: in vivo, human
Description: as §1, §2, §3

[4] = test system: human patients experiencing osteoarthritic knee joint pain; assay: Safety assessments (TEAEs, SAEs, procedural pain ratings) after single intra-articular injection of capsaicin with cooling and lidocaine, Example 1; assay type: in vivo; settings: for All TEAEs / Arthralgia / Hepatic enzyme increased / Influenza / Joint effusion / Nasopharyngitis / Upper respiratory tract infection: through 24 weeks
Description: as §2, with “Human patients experiencing osteoarthritic knee joint pain received either placebo, a 0.5 mg intra-articular injection of capsaicin into the osteoarthritic knee joint,” for “The test article (i.e., placebo”, “a 1.0 mg intra-articular injection of capsaicin into the osteoarthritic knee joint. Transient burning sensation due to administration of capsaicin” for “capsaicin)”, “attenuated by administering capsaicin” for “administered”, “60)” for “60”, “water. Further description of experimental procedures and results are provided below:” for “water.”
as §1, §2
Safety assessments included treatment-emergent adverse events (TEAEs), serious AEs (SAEs), laboratory abnormalities, and procedural pain ratings (none, mild, moderate, moderately severe, severe). The procedure pain ratings characterize the extent of transient burning sensation experienced by patients due to administration of capsaicin.

[5] = test system: pain due to an intermetatarsal neuroma; assay: Average walking pain due to intermetatarsal neuroma (NPRS) after two doses of trans-capsaicin, Example 3; assay type: in vivo, human; settings: 200 μg
Description: Twenty-seven adult, human patients experiencing pain due to an intermetatarsal neuroma were treated by administering a first dose of trans-capsaicin (200 μg of trans-capsaicin) and then, after at least 11 weeks, administered a second dose of trans-capsaicin (200 μg of trans-capsaicin). Patients rated their average walking pain due to the intermetatarsal neuroma on a Numeric Pain Rating Scale (NPRS), where pain is characterized by the patient on a scale of zero to ten (with zero being “no pain”, and ten being “worst possible pain”). Patients rated their average walking pain due to the intermetatarsal neuroma on (i) just prior to receiving the injection of trans-capsaicin and (ii) four (4) weeks after receiving each injection of trans-capsaicin. Patients reported a reduction in average walking pain due to the intermetatarsal neuroma when measured at four weeks after injection of trans-capsaicin for each administration of trans-capsaicin. […]
Pain due to the intermetatarsal neuroma was evaluated by having patients rate their average walking pain due to the intermetatarsal neuroma on a Numeric Pain Rating Scale (NPRS), where pain is characterized by the patient on a scale of zero to ten (with zero being “no pain”, and ten being “worst possible pain”). […]

[6] = 2 hours after injection, all groups (capsaicin or placebo)
[7] = either 0.5 mg or 1.0 dose (n = 105)

SMILES: COc1cc(CNC(=O)CCCCC=CC(C)C)ccc1O [Capsaicin, N-[(4-hydroxy-3-methoxyphenyl)methyl]-8-methylnon-6-enamide]
- WOMAC B score, LSMD versus placebo [1]: −2.1
- WOMAC C score, LSMD versus placebo [1]: −14.8
- PSFS: LSMD versus Placebo ([2]; 0.5 mg dose, week 4): 0.01
- PSFS: LSMD versus Placebo ([2]; 0.5 mg dose, week 8): −0.03
- PSFS: LSMD versus Placebo ([2]; 0.5 mg dose, week 12): −0.4
- PSFS: LSMD versus Placebo ([2]; 0.5 mg dose, week 16): −0.5
- PSFS: LSMD versus Placebo ([2]; 0.5 mg dose, week 24): −0.05
- PSFS: LSMD versus Placebo ([2]; 1.0 mg dose, week 4): −1.4
- PSFS: LSMD versus Placebo ([2]; 1.0 mg dose, week 8): −0.9
- PSFS: LSMD versus Placebo ([2]; 1.0 mg dose, week 12): −1.1
- PSFS: LSMD versus Placebo ([2]; 1.0 mg dose, week 16): −0.9
- PSFS: LSMD versus Placebo ([2]; 1.0 mg dose, week 24): −0.5
- PSFS: ability to perform activities versus placebo ([2]; 1.0 mg dose, weeks 4-16): significantly improved
- PGIC: Odds Ratio vs Placebo ([3]; 0.5 mg dose, week 4): 1.76
- PGIC: proportion of patients reporting significant improvement in the index knee ([3]; 0.5 mg dose, week 4): 58%
- PGIC: Odds Ratio vs Placebo ([3]; 0.5 mg dose, week 8): 1.89
- PGIC: Odds Ratio vs Placebo ([3]; 0.5 mg dose, week 12): 2.75
- PGIC: Odds Ratio vs Placebo ([3]; 0.5 mg dose, week 16): 2.37
- PGIC: Odds Ratio vs Placebo ([3]; 0.5 mg dose, week 24): 1.68
- PGIC: Odds Ratio vs Placebo ([3]; 1.0 mg dose, week 4): 2.34
- PGIC: proportion of patients reporting significant improvement in the index knee ([3]; 1.0 mg dose, week 4): 64%
- PGIC: Odds Ratio vs Placebo ([3]; 1.0 mg dose, week 8): 2.50
- PGIC: Odds Ratio vs Placebo ([3]; 1.0 mg dose, week 12): 2.40
- PGIC: Odds Ratio vs Placebo ([3]; 1.0 mg dose, week 16): 1.85
- PGIC: Odds Ratio vs Placebo ([3]; 1.0 mg dose, week 24): 1.64
- PGIC: likelihood of significant improvement compared with placebo ([3]; 1.0 mg dose, weeks 4, 8 and 12): greater than two-fold likelihood
- All TEAEs ([4]; 0.5 mg dose IA (n = 34)): 16 (47) n (%)
- Arthralgia ([4]; 0.5 mg dose IA (n = 34)): 3 (8.8) n (%)
- Hepatic enzyme increased ([4]; 0.5 mg dose IA (n = 34)): 2 (5.9) n (%)
- Influenza ([4]; 0.5 mg dose IA (n = 34)): 1 (2.9) n (%)
- Joint effusion ([4]; 0.5 mg dose IA (n = 34)): 3 (8.8) n (%)
- Nasopharyngitis ([4]; 0.5 mg dose IA (n = 34)): 1 (2.9) n (%)
- Upper respiratory tract infection ([4]; 0.5 mg dose IA (n = 34)): 2 (5.9) n (%)
- All TEAEs ([4]; 1.0 mg dose IA (n = 71)): 21 (30) n (%)
- Arthralgia ([4]; 1.0 mg dose IA (n = 71)): 5 (7.0) n (%)
- Hepatic enzyme increased ([4]; 1.0 mg dose IA (n = 71)): 1 (1.4) n (%)
- Influenza ([4]; 1.0 mg dose IA (n = 71)): 2 (2.8) n (%)
- Joint effusion ([4]; 1.0 mg dose IA (n = 71)): 0 n (%)
- Nasopharyngitis ([4]; 1.0 mg dose IA (n = 71)): 2 (2.8) n (%)
- Upper respiratory tract infection ([4]; 1.0 mg dose IA (n = 71)): 3 (4.2) n (%)
- patients reporting mild pain (procedural pain rating) [4, 6]: 39%
- patients reporting no pain (procedural pain rating) [4, 6]: 50%
- Incidence of TEAEs ([4]; capsaicin 0.5 mg dose): 47%
- TEAEs mild in severity ([4]; capsaicin 0.5 mg dose): 29%
- TEAEs moderate in severity ([4]; capsaicin 0.5 mg dose): 18%
- SAE ([4]; capsaicin 0.5 mg dose group, not considered treatment related): One SAE (shoulder pain from osteoarthritis)
- Incidence of TEAEs ([4]; capsaicin 1.0 mg dose): 30%
- TEAEs mild in severity ([4]; capsaicin 1.0 mg dose): 20%
- TEAEs moderate in severity ([4]; capsaicin 1.0 mg dose): 9.9%
- arthralgia (TEAE) ([4]; capsaicin 1.0 mg dose): 7.0%
- arthralgia (TEAE) ([4]; capsaicin regardless of dose): 7.6%
- upper respiratory tract infection (TEAE) ([4]; capsaicin regardless of dose): 4.8%
- All TEAEs [4, 7]: 37 (35) n (%)
- Arthralgia [4, 7]: 8 (7.6) n (%)
- Hepatic enzyme increased [4, 7]: 3 (2.9) n (%)
- Influenza [4, 7]: 3 (2.9) n (%)
- Joint effusion [4, 7]: 3 (2.9) n (%)
- Nasopharyngitis [4, 7]: 3 (2.9) n (%)
- Upper respiratory tract infection [4, 7]: 5 (4.8) n (%)
- tolerability / safety profile ([4]; single injection, 1.0 mg dose, up to 24 weeks, comparable to placebo): well tolerated

SMILES: COc1cc(CNC(=O)CCCCC=CC(C)C)ccc1O [trans-capsaicin, N-[(4-hydroxy-3-methoxyphenyl)methyl]-8-methylnon-6-enamide]
- reduction in average walking pain due to the intermetatarsal neuroma (NPRS) ([5]; four weeks after first dose, vs prior to first dose): 1.6 point
- reduction in average walking pain due to the intermetatarsal neuroma (NPRS) ([5]; four weeks after second dose, vs just prior to second dose): 2.3 point
